These results are taken from patent US7816390B2, “N-substituted tricyclic 3-aminopyrazoles as anti-mitotic tubulin polymerization inhibitors” (Janssen Pharmaceutica NV, priority 2008, dated 2010).

SMILES strings stand for the structures. Where “and” joins values, the source holds several entries; their conditions need not be identical. Equal values may be shown once. Read-outs that look alike come from different tables or passages of the source.

One assay concerns bovine tubulin. The experiment in a line: In vitro tubulin polymerization assay (CytoDYNAMIX Screen 03). The class given is biochemical. Particulars: for effect on tubulin polymerization curve (Vmax): 10 μM; for IC50: 3 mg/mL bovine tubulin, absorbance at 340 nm, relative to Vmax of DMSO controls, read-out: IC50 for inhibition of tubulin polymerization. The procedure:
Compounds were assayed in vitro for effects on tubulin polymerization using a commercially available assay kit from Cytoskeleton (CytoDYNAMIX Screen 03).
Methods: Briefly, this assay is based on the observation that light scattered by microtubules is proportional to the concentration of microtubule polymer. The standard polymerization reaction contains 100 μL volume of tubulin solution consisting of 3 mg/mL bovine tubulin in 80 mM PIPES pH 6.9, 0.5 mM EGTA, 2 mM MgCl2, 1 mM GTP and 10% glycerol. The tubulin solution (100 μL/well) is added rapidly to wells of a 96-well plate containing duplicate aliquots (10 μL) of experimental compounds in DMSO to achieve a final well concentration of 1.0 and 10 μM in a preliminary screening assay. Control wells contain the same final concentration of DMSO (<0.5%). Following initiation of the polymerization reaction by incubation at 37° C., absorbance at 340 nm is measured every minute for 60 minutes using a SpectraMax plate reader. […] Inhibition of tubulin polymerization by experimental compounds is calculated relative to the Vmax of the DMSO controls. A more detailed description of assay conditions and assay optimization can be found in the Assay Kit Instructions. The resulting polymerization curve (OD vs. Time in sec) is represented by three phases of microtubule polymerization, including nucleation (Phase I), microtubule growth (Phase II) and finally, steady-state equilibrium (Phase III). Compounds that interact (bind) with tubulin alter one or more of these characteristic phases of tubulin polymerization.

The test system of assay [1] is human tumor cell lines (AsPC-1, H460, PC3, T45D, A375, LoVo). The experiment in a line: Tumor cell proliferation assay (14C-thymidine incorporation). The class given is cell-based. On the procedure: (§1) The compound N-(3-ethoxyphenyl)-1,4-dihydro-6-ethoxy-7-(3-hydroxypropoxy)-1-methylindeno[1,2-c]pyrazole-3-amine was evaluated for direct effects on the growth of several human tumor cell lines derived from human cancers of varying origin (HeLa, cervical, H460 lung, LoVo colon, LnCAP and PC3 prostate lines, T47D breast, A375 melanoma, AsPC1 pancreatic and U87MG glioblastoma) and on the proliferation of normal human umbilical vein endothelial cells (HUVEC). Colchicine, nocodazole, doxorubicin and paclitaxel were evaluated as comparators.
(§2) Methods: Tumor cell anti-proliferative activity was assessed using standard in vitro cell proliferation assays in which the IC50 for inhibition of cell proliferation by a compound was measured using ^14C-thymidine incorporation into cellular DNA. Briefly, cells were plated into 96-well microplates and allowed to adhere overnight. Compound was added the next day and cells were incubated for an additional 24 hours. [^14C]-thymidine was allowed to incorporate into cellular DNA for 24 hours after which the plate was washed and counted in a scintillation counter.
(In general: Incorporation of labelled thymidine or its analogues reports DNA synthesis.)

Assay [2] deals with tubulin (colchicine binding site). The experiment in a line: Radiolabeled [3H]-colchicine competition SPA assay.
For assay [3] the test system is unchanged. The experiment in a line: ThermoFluor binding assay. In general terms: In DSF a fluorescence change marks the thermal transition of the protein.
In assay [4] the test system is human umbilical vein endothelial cells (HUVEC). The experiment in a line: HUVEC proliferation assay (14C-thymidine incorporation). The class given is cell-based. On the procedure: as §1, §2

In the case of `CC(=O)O[C@H]1C(=O)[C@@]2(C)[C@H]([C@H](OC(=O)c3ccccc3)[C@]3(O)C[C@H](OC(=O)[C@H](O)[C@@H](NC(=O)c4ccccc4)c4ccccc4)C(C)=C1C3(C)C)[C@]1(OC(C)=O)CO[C@@H]1C[C@@H]2O` [paclitaxel], in the assay with bovine tubulin, the effect on tubulin entry was “stabilization of tubulin” and the “effect on tubulin polymerization curve (Vmax)” value is reported as “dramatic enhancement of the Vmax of the growth phase”. The anti-proliferative potency entry in assay [1] (H460 lung, T47D breast, PC3 prostate and LoVo colon lines) is given as “sub-nM potency”.

With `CCOc1cccc(Nc2nn(C)c3c2Cc2cc(OCC)c(OCCCO)cc2-3)c1` [N-(3-ethoxyphenyl)-1,4-dihydro-6-ethoxy-7-(3-hydroxypropoxy)-1-methylindeno[1,2-c]pyrazole-3-amine], the IC50 with bovine tubulin was 2400 nM and 2400 to 3700 nM; in assay [1] (range over 6 of 6 human tumor cell lines (AsPC-1, H460, PC3, T45D, A375, LoVo), read-out: IC50 for inhibition of tumor cell proliferation), 2 to 10 nM; in assay [4] (read-out: IC50 for inhibition of LSGS-stimulated HUVEC growth) it was below 10 nM; in assay [4] (read-out: IC50 versus confluent, non-proliferating HUVEC cells), above 10000 nM. Besides, the “competition with [3H]-colchicine binding” value in assay [2] is “competed with [^3H]-colchicine binding in a manner similar to unlabeled colchicine”. Further, the “binding at the colchicine binding site” value in assay [3] is “binding of this compound at the colchicine binding site was also demonstrated”. Moreover, the “fold less potent compared to paclitaxel” value in assay [1] (depending on the cell line examined) is given as “approximately 10 fold”.

Regarding `CC[C@]1(O)C[C@@H]2CN(CCc3c([nH]c4ccccc34)[C@@](C(=O)OC)(c3cc4c(cc3OC)N(C)[C@H]3[C@@](O)(C(=O)OC)[C@H](OC(C)=O)[C@]5(CC)C=CCN6CC[C@]43[C@@H]65)C2)C1` [vinblastine, reference compound], the “competition with [3H]-colchicine binding” value in assay [2] is reported as “no significant competition”.

As to `COC(=O)Nc1nc2ccc(C(=O)c3cccs3)cc2[nH]1` [nocodazole], in the assay on bovine tubulin, the “effect on tubulin polymerization curve (Vmax)” value was “significant decrease in the Vmax” and the IC50 was 1500 nM.
